In ChEMBL document CHEMBL4118220, “Design, synthesis and biological evaluation of phosphopeptides as Polo-like kinase 1 Polo-box domain inhibitors” (Bioorg Med Chem, 2018):
Calls of active or inactive are those of the source. No cut-off for these calls is given here. Square brackets hold non-standard residues; d marks the D form. Peptide text beside a SMILES is read from it. Phe(4-NO2) = N[C@@H](Cc1ccc([N+](=O)[O-])cc1)C(=O)O; Phe(3,4-Cl2) = N[C@@H](Cc1ccc(Cl)c(Cl)c1)C(=O)O; pT = C[C@@H](OP(=O)(O)O)[C@H](N)C(=O)O

How the values were obtained:
[1] = molecular target: Serine/threonine-protein kinase PLK3 (Homo sapiens, UniProt Q9H4B4); experiment: Inhibition of FITC-GPLATSpTPKNG-OH binding to Plk3 PBD (unknown origin) after 30 mins by fluorescence polarization assay
Sequence of Serine/threonine-protein kinase PLK3 (Q9H4B4 whole entry): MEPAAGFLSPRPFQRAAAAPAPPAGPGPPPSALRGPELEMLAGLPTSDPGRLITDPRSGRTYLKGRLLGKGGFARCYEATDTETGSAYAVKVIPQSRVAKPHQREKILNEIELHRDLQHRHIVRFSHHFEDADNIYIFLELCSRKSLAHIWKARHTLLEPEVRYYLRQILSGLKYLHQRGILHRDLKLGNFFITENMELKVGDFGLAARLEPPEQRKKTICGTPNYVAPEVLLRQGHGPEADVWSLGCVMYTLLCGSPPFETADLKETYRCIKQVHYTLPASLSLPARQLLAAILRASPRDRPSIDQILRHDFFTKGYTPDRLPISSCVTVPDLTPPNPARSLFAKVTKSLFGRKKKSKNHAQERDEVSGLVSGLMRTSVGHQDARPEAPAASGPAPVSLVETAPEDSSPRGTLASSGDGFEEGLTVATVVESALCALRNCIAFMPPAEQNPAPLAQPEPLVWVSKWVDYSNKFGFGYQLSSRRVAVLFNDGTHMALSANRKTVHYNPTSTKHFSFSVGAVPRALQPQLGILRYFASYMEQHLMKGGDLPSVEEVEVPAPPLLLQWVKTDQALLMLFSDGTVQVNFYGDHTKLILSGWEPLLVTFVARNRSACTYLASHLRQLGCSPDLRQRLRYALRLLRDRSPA

[2] = molecular target: Serine/threonine-protein kinase PLK2 (Homo sapiens, UniProt Q9NYY3); experiment: Inhibition of FITC-GPMQTSpTPKNG-OH binding to Plk2 PBD (unknown origin) after 30 mins by fluorescence polarization assay
Sequence of Serine/threonine-protein kinase PLK2 (Q9NYY3 whole entry): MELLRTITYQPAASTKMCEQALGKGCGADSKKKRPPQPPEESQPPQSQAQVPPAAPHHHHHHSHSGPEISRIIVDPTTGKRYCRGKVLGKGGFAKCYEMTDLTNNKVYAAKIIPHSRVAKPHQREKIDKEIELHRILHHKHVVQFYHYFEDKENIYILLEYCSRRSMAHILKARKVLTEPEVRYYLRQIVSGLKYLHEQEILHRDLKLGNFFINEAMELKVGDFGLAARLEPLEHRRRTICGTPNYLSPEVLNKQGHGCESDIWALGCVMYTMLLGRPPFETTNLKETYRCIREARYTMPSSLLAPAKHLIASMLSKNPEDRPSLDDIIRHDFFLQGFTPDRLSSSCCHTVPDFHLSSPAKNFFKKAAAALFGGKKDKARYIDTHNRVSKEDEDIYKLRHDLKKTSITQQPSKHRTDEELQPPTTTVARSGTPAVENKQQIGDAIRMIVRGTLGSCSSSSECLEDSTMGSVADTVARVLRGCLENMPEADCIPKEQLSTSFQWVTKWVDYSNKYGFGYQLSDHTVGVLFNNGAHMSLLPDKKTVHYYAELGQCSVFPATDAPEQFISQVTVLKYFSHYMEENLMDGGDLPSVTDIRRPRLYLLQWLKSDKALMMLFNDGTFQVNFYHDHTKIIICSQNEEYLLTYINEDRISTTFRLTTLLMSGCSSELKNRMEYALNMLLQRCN

HeLa [3] = experiment: Cell cycle arrest in human HeLa cells assessed as decrease in S phase at 5 to 20 uM after 48 hrs by propidium iodide staining based flow cytometry; type: functional
HeLa [4] = experiment: Induction of apoptosis in human HeLa cells assessed as viable cells at 20 uM after 48 hrs by Annexin V-FITC/propidium iodide staining based flow cytometry (reference value: 39.5%); type: functional; conditions: read-out: Activity
HeLa [5] = experiment: Induction of apoptosis in human HeLa cells assessed as late apoptotic cells at 10 uM after 48 hrs by Annexin V-FITC/propidium iodide staining based flow cytometry (reference value: 0%); type: functional
HeLa [6] = experiment: Induction of apoptosis in human HeLa cells assessed as viable cells at 5 uM after 48 hrs by Annexin V-FITC/propidium iodide staining based flow cytometry (reference value: 39.5%); type: functional; conditions: read-out: Activity
HeLa [7] = experiment: Decrease in cyclin B1 expression level in human HeLa cells after 48 hrs by Western blot analysis; type: functional, cell-based
HeLa [8] = experiment: Induction of apoptosis in human HeLa cells assessed as early apoptotic cells at 10 uM after 48 hrs by Annexin V-FITC/propidium iodide staining based flow cytometry (reference value: 0%); type: functional
HeLa [9] = experiment: Induction of apoptosis in human HeLa cells assessed as late apoptotic cells at 20 uM after 48 hrs by Annexin V-FITC/propidium iodide staining based flow cytometry (reference value: 0%); type: functional
HeLa [10] = experiment: Cell cycle arrest in human HeLa cells assessed as decrease in G2/M phase at 20 uM after 24 hrs by propidium iodide staining based flow cytometry relative to control; type: functional; design: scale not given: the % may be the effect or the level left
HeLa [11] = experiment: Induction of morphological changes in human HeLa cells assessed as nuclei fragmentation at 5 to 20 uM after 48 hrs by Hoechst 33258 staining based fluorescence microscopy; type: functional, cell-based
HeLa [12] = experiment: Induction of morphological changes in human HeLa cells at 5 to 20 uM after 48 hrs by Hoechst 33258 staining based fluorescence microscopy; type: functional, cell-based
HeLa [13] = experiment: Induction of apoptosis in human HeLa cells assessed as early apoptotic cells at 20 uM after 48 hrs by Annexin V-FITC/propidium iodide staining based flow cytometry (reference value: 0%); type: functional
HeLa [14] = experiment: Induction of morphological changes in human HeLa cells assessed as chromatin condensation at 5 to 20 uM after 48 hrs by Hoechst 33258 staining based fluorescence microscopy; type: functional, cell-based
HeLa [15] = experiment: Induction of apoptosis in human HeLa cells assessed as necrotic cells at 10 uM after 48 hrs by Annexin V-FITC/propidium iodide staining based flow cytometry (reference value: 0.5%); type: functional
HeLa [16] = experiment: Induction of apoptosis in human HeLa cells assessed as necrotic cells at 5 uM after 48 hrs by Annexin V-FITC/propidium iodide staining based flow cytometry (reference value: 0.5%); type: functional
HeLa [17] = experiment: Cell cycle arrest in human HeLa cells assessed as decrease in G2/M phase at 20 uM after 12 hrs by propidium iodide staining based flow cytometry relative to control; type: functional
HeLa [18] = experiment: Induction of apoptosis in human HeLa cells after 48 hrs by Annexin V-FITC/propidium iodide staining based flow cytometry; type: functional, cell-based
HeLa [19] = experiment: Induction of apoptosis in human HeLa cells assessed as late apoptotic cells at 5 uM after 48 hrs by Annexin V-FITC/propidium iodide staining based flow cytometry (reference value: 0%); type: functional
HeLa [20] = experiment: Cell cycle arrest in human HeLa cells assessed as decrease in G2/M phase at 20 uM after 48 hrs by propidium iodide staining based flow cytometry relative to control; type: functional; design: scale not given: the % may be the effect or the level left
HeLa [21] = experiment: Decrease in CDK1 expression level in human HeLa cells after 48 hrs by Western blot analysis; type: functional, cell-based
HeLa [22] = experiment: Induction of apoptosis in human HeLa cells assessed as necrotic cells at 20 uM after 48 hrs by Annexin V-FITC/propidium iodide staining based flow cytometry (reference value: 0.5%); type: functional
HeLa [23] = experiment: Induction of apoptosis in human HeLa cells assessed as PARP cleavage after 48 hrs by Western blot analysis; type: functional, cell-based
HeLa [24] = experiment: Cell cycle arrest in human HeLa cells assessed as decrease in G0/G1 phase at 5 to 20 uM after 48 hrs by propidium iodide staining based flow cytometry; type: functional
HeLa [25] = experiment: Induction of apoptosis in human HeLa cells assessed as viable cells at 10 uM after 48 hrs by Annexin V-FITC/propidium iodide staining based flow cytometry (reference value: 39.5%); type: functional; conditions: read-out: Activity
HeLa [26] = experiment: Cell cycle arrest in human HeLa cells assessed as accumulation at G2/M phase at 5 to 20 uM after 48 hrs by propidium iodide staining based flow cytometry; type: functional
HeLa [27] = experiment: Induction of apoptosis in human HeLa cells assessed as early apoptotic cells at 5 uM after 48 hrs by Annexin V-FITC/propidium iodide staining based flow cytometry (reference value: 0%); type: functional
[28] = Drug uptake in nucleus of human HeLa cells after 3 hrs by DAPI staining based confocal laser scanning microscopy; type: ADME, subcellular
HeLa [29] = experiment: Induction of apoptosis in human HeLa cells assessed as caspase 3 cleavage after 48 hrs by Western blot analysis; type: functional, cell-based

SMILES: CC[C@H](C)[C@H](NC(=O)[C@H](C)NC(=O)[C@@H](NC(=O)[C@H](CO)NC(=O)[C@H](Cc1cnc[nH]1)NC(=O)[C@H](CC(C)C)NC(=O)[C@@H]1CCCN1C(=O)[C@@H]1CCCN1C(=O)[C@H](CC(=O)O)NC(=O)[C@H](Cc1ccc(Cl)c(Cl)c1)NC(C)=O)[C@@H](C)OP(=O)(O)O)C(=O)N[C@@H](Cc1ccc(O)cc1)C(=O)N[C@@H](C)C(=O)N[C@@H](CC(N)=O)C(N)=O (Ac-[Phe(3,4-Cl2)]DPPLHS[pT]AIYAN-NH2)
- IC50 [1]: Not Active
- IC50 ([2]; read-out: IC50): 0.716 µM

SMILES: CC[C@H](C)[C@H](NC(=O)[C@H](C)NC(=O)[C@@H](NC(=O)[C@H](CO)NC(=O)[C@H](Cc1cnc[nH]1)NC(=O)[C@H](CC(C)C)NC(=O)[C@@H]1CCCN1C(=O)[C@@H]1CCCN1C(=O)[C@H](CC(=O)O)NC(=O)[C@H](Cc1ccc(Cl)c(Cl)c1)NC(=O)[C@@H](NC(=O)[C@H](CCC(N)=O)NC(C)=O)[C@@H](C)O)[C@@H](C)OP(=O)(O)O)C(=O)N[C@@H](Cc1ccc(O)cc1)C(=O)N[C@@H](C)C(=O)N[C@@H](CC(N)=O)C(N)=O (Ac-QT[Phe(3,4-Cl2)]DPPLHS[pT]AIYAN-NH2)
- Activity (HeLa [3]): Active
- viability at 20 µM (HeLa [4]): 50.8%
- Activity (HeLa [5]): 5.9%
- viability at 5 µM (HeLa [6]): 83.7%
- Activity (HeLa [7]): Dose-dependent effect
- Activity (HeLa [8]): 25.2%
- Activity (HeLa [9]): 2.1%
- Activity (HeLa [10]): 40%
- Activity (HeLa [11]): Active
- Activity (HeLa [12]): Active
- Activity (HeLa [13]): 46.9%
- Activity (HeLa [14]): Active
- Activity (HeLa [15]): 0.2%
- Activity (HeLa [16]): 0.2%
- Activity (HeLa [17]): inactive
- IC50 [2]: Not Active
- Activity (HeLa [18]): Dose-dependent effect
- Activity (HeLa [19]): 1.6%
- Activity (HeLa [20]): 71%
- Activity (HeLa [21]): Dose-dependent effect
- Activity (HeLa [22]): 0.1%
- Activity (HeLa [23]): Active
- Activity (HeLa [24]): Active
- viability at 10 µM (HeLa [25]): 68.6%
- Activity (HeLa [26]): 24.37 - 67.66%
- Activity (HeLa [27]): 14.6%
- Drug uptake [28]: Active
- Activity (HeLa [29]): Active

SMILES: CC[C@H](C)[C@H](NC(=O)[C@H](C)NC(=O)[C@@H](NC(=O)[C@H](CO)NC(=O)[C@H](Cc1cnc[nH]1)NC(=O)[C@H](CC(C)C)NC(=O)[C@@H]1CCCN1C(=O)[C@@H]1CCCN1C(=O)[C@H](CC(=O)O)NC(=O)[C@H](Cc1ccccc1)NC(C)=O)[C@@H](C)OP(=O)(O)O)C(=O)N[C@@H](Cc1ccc(O)cc1)C(=O)N[C@@H](C)C(=O)N[C@@H](CC(N)=O)C(N)=O (Ac-FDPPLHS[pT]AIYAN-NH2)
- viability at 20 µM (HeLa [4]): 100%
- Activity (HeLa [5]): 0%
- viability at 5 µM (HeLa [6]): 100%
- Activity (HeLa [8]): 0%
- Activity (HeLa [9]): 0%
- IC50 [1]: Not Active
- Activity (HeLa [13]): 0%
- Activity (HeLa [15]): 0%
- Activity (HeLa [16]): 0%
- IC50 ([2]; read-out: IC50): 13.4 µM
- Activity (HeLa [19]): 0%
- Activity (HeLa [22]): 0%
- viability at 10 µM (HeLa [25]): 100%
- Activity (HeLa [26]): inactive
- Activity (HeLa [27]): 0%

SMILES: CC[C@H](C)[C@H](NC(=O)[C@H](C)NC(=O)[C@@H](NC(=O)[C@H](CO)NC(=O)[C@H](Cc1cnc[nH]1)NC(=O)[C@H](CC(C)C)NC(=O)[C@@H]1CCCN1C(=O)[C@@H]1CCCN1C(=O)[C@H](CC(=O)O)NC(=O)[C@H](Cc1ccc([N+](=O)[O-])cc1)NC(=O)[C@@H](NC(=O)[C@H](CCC(N)=O)NC(C)=O)[C@@H](C)O)[C@@H](C)OP(=O)(O)O)C(=O)N[C@@H](Cc1ccc(O)cc1)C(=O)N[C@@H](C)C(=O)N[C@@H](CC(N)=O)C(N)=O (Ac-QT[Phe(4-NO2)]DPPLHS[pT]AIYAN-NH2)
- IC50 [1]: Not Active
- IC50 [2]: Not Active
